A short description of data set [1]: Cytotoxicity against human A549 cells after 72 hrs by MTT assay. It is filed as cell-based. The following applies: read-out: CD50. A general note: Tetrazolium assays rely on reduction of a dye to a coloured formazan, in cell work by metabolically active cells.
Data set [2] in a line: Cytotoxicity against African green monkey Vero cells after 72 hrs by MTT assay. It counts as cell-based. Particulars: chlorocebus sabaeus, read-out: CD50.
Data set [3] concerns Mycobacterium tuberculosis. As to the kind of experiment: Bacteriostatic activity against Mycobacterium tuberculosis H37Rv assessed as growth inhibition. It counts as functional.
In data set [4] the test system is Mycobacterium tuberculosis. As to the kind of experiment: Bacteriostatic activity against Mycobacterium tuberculosis H37Rv assessed as growth inhibition at 200 ug/mL relative to control. It counts as functional. The following applies: read-out: GI.
Data set [5] can be described thus: Cytotoxicity against human Jurkat cells after 72 hrs by MTT assay. It is filed as cell-based. Particulars: read-out: CD50.
Data set [6] concerns Staphylococcus aureus. As to the kind of experiment: Antibacterial activity against methicillin-resistant Staphylococcus aureus INA 00761. It counts as functional, organism-based.
The next data set deals with Escherichia coli. As to the kind of experiment: Antibacterial activity against Escherichia coli ATCC 25922. It counts as functional, organism-based.
A further data set relates to Pseudomonas aeruginosa. As to the kind of experiment: Antibacterial activity against Pseudomonas aeruginosa ATCC 27853. It is filed as functional, organism-based.
Another data set concerns Bacillus subtilis. As to the kind of experiment: Antibacterial activity against Bacillus subtilis ATCC 6633. It counts as functional, organism-based.
Data set [7] has as its system Staphylococcus aureus. As to the kind of experiment: Antibacterial activity against methicillin-susceptible Staphylococcus aureus FDA 209P. It counts as functional, organism-based.
The test system of data set [8] is Mycobacterium tuberculosis. As to the kind of experiment: Bacteriostatic activity against Mycobacterium tuberculosis H37Rv assessed as growth inhibition at 10 ug/mL relative to control. Particulars: read-out: GI. It is filed as functional.
Data set [9] relates to Mycobacterium tuberculosis. As to the kind of experiment: Bacteriostatic activity against Mycobacterium tuberculosis H37Rv assessed as growth inhibition at 50 ug/mL relative to control. It is filed as functional. Particulars: read-out: GI.
The subject of data set [10] is Leuconostoc mesenteroides. As to the kind of experiment: Antibacterial activity against vancomycin-resistant Leuconostoc mesenteroides VKPM B-4177 at 95 ug/mL. It counts as functional.
The subject of another data set is Aspergillus niger. As to the kind of experiment: Antifungal activity against Aspergillus niger INA 00760. It counts as functional, organism-based.
In another data set the test system is Micrococcus luteus. As to the kind of experiment: Antibacterial activity against Micrococcus luteus NCTC 8340. It counts as functional, organism-based.
The subject of a further data set is Bacillus mycoides. As to the kind of experiment: Antibacterial activity against Bacillus mycoides 537. It counts as functional, organism-based.
In data set [11] the test system is Leuconostoc mesenteroides. As to the kind of experiment: Antibacterial activity against vancomycin-resistant Leuconostoc mesenteroides VKPM B-4177. It is filed as functional.
In the next data set the test system is Saccharomyces cerevisiae. As to the kind of experiment: Antifungal activity against Saccharomyces cerevisiae RIA 259. It is filed as functional, organism-based.
The subject of data set [12] is Mycobacterium tuberculosis. As to the kind of experiment: Bacteriostatic activity against Mycobacterium tuberculosis H37Rv assessed as growth inhibition at 20 ug/mL relative to control. Particulars: read-out: GI. It is filed as functional.
Data set [13] deals with Mycobacterium tuberculosis. As to the kind of experiment: Bacteriostatic activity against Mycobacterium tuberculosis H37Rv assessed as growth inhibition at 100 ug/mL relative to control. It is filed as functional. The following applies: read-out: GI.
Another data set deals with Bacillus pumilus. As to the kind of experiment: Antibacterial activity against Bacillus pumilus NCTC 8241. It counts as functional, organism-based.
Data set [14] concerns Mycobacterium tuberculosis. As to the kind of experiment: Bacteriostatic activity against Mycobacterium tuberculosis H37Rv assessed as growth inhibition at 1 ug/mL relative to control. It is filed as functional. Particulars: read-out: GI.
Data set [15] deals with Mycobacterium tuberculosis. As to the kind of experiment: Bacteriostatic activity against Mycobacterium tuberculosis H37Rv assessed as growth inhibition at 5 ug/mL relative to control. It counts as functional. The following applies: read-out: GI.

This is an account of results in ChEMBL document CHEMBL2412960, “Inhibition of Mycobacterium tuberculosis strains H37Rv and MDR MS-115 by a new set of C5 modified pyrimidine nucleosides” (Bioorg Med Chem, 2013).

In brackets after ≈: the same amount, converted by molar mass. Activity calls are given as the source filed them. The rule behind the calls is not given here. Bounds are passed on as bounds.

As usually defined, the MIC99 is the lowest concentration that inhibits either 99% of growth or 99% of the strains tested, depending on the study.

On to `CCCCCCCCCCCCOCc1cn([C@H]2C[C@H](N=[N+]=[N-])[C@@H](CO)O2)c(=O)[nH]c1=O`, for which the CC50 at 72 h in data set [1] stood at 10 µg/mL (≈ 22.1 µM); in data set [2] it was 15 µg/mL (≈ 33.2 µM); in data set [5], 8 µg/mL (≈ 17.7 µM). The MIC99 in [3] stood at 200 µg/mL (≈ 443 µM). Further, the inhibition of growth at 200 µg/mL in data set [4] came to 100%.
The corresponding values for `CCCCCCCCCCCCOCc1cn([C@H]2C[C@H](O)[C@@H](CO)O2)c(=O)nc1N` are 45 µg/mL (≈ 106 µM), > 100 µg/mL, 37 µg/mL (≈ 86.9 µM), 200 µg/mL (≈ 470 µM) and 100%.
Consider `CCCCCCCCCCCCCCOCc1cn([C@H]2C[C@H](O)[C@@H](CO)O2)c(=O)[nH]c1=O`, for which the CC50 at 72 h in [2] was > 100 µg/mL. For the same compound, in data set [3], the MIC99 was 200 µg/mL (≈ 440 µM). The inhibition of growth at 200 µg/mL in data set [4] came to 100%.
`CCCCCCCCCCCCOCc1cn([C@@H]2C[C@H](O)[C@@H](CO)O2)c(=O)[nH]c1=O`: the outcome in the data set with Staphylococcus aureus [6], in the data set on Escherichia coli, with Pseudomonas aeruginosa, in the data set on Bacillus subtilis, with Staphylococcus aureus [7] and in the data set with Aspergillus niger was inactive. Moreover, the outcome (in the data set with Micrococcus luteus; with Bacillus mycoides; in data set [11]; with Saccharomyces cerevisiae; with Bacillus pumilus) was inactive. Besides, the CC50 at 72 h was 45 µg/mL (≈ 105 µM) in data set [1], > 100 µg/mL in data set [2] and 40 µg/mL (≈ 93.8 µM) in data set [5]. Moreover, the inhibition of growth at 10 µg/mL in [8] worked out at 90%. In addition, the inhibition of growth at 50 µg/mL in data set [9] was found to be 100%. Moreover, the result in [10] was Active. Further, in [3], the MIC99 is 20 µg/mL (≈ 46.9 µM). In addition, the inhibition of growth at 20 µg/mL in data set [12] was 99%. In addition, the inhibition of growth at 100 µg/mL in data set [13] came out at 100%.
Take `CO[C@H]1/C=C/O[C@@]2(C)Oc3c(C)c(O)c4c(O)c(c(/C=N/N5CCN(C)CC5)c(O)c4c3C2=O)NC(=O)/C(C)=C\C=C\[C@H](C)[C@H](O)[C@@H](C)[C@@H](O)[C@@H](C)[C@H](OC(C)=O)[C@@H]1C` [RIFAMPIN]: the CC50 at 72 h in data set [2] is > 500 µg/mL. Further, the MIC99 in data set [3] is 1 µg/mL (≈ 1.22 µM). Moreover, the inhibition of growth at 1 µg/mL in [14] was found to be 100%.
Regarding `CCCCCCCCCCCCOCc1cn([C@H]2C[C@H](O)[C@@H](CO)O2)c(=O)[nH]c1=O`, the outcome in the data set on Staphylococcus aureus [6], in the data set with Escherichia coli, with Pseudomonas aeruginosa, with Bacillus subtilis, in the data set on Staphylococcus aureus [7] and in the data set on Aspergillus niger was inactive. Further, the outcome (in the data set on Micrococcus luteus; in the data set on Bacillus mycoides; in [11]; in the data set with Saccharomyces cerevisiae; with Bacillus pumilus) was inactive. In addition, the results for the CC50 at 72 h in data set [1], in data set [2] and in data set [5] were 100 µg/mL (≈ 234 µM), > 100 µg/mL and 100 µg/mL (≈ 234 µM), respectively. Moreover, the inhibition of growth at 10 µg/mL in [8] was 90%. Further, the inhibition of growth at 5 µg/mL in data set [15] stood at 25%. For the same compound, the inhibition of growth at 50 µg/mL in [9] was found to be 100%. The MIC99 in data set [3] was 20 µg/mL (≈ 46.9 µM). The inhibition of growth at 20 µg/mL in data set [12] is 100%. Further, in data set [13], the inhibition of growth at 100 µg/mL was 100%.
